According to BindingDB's records for patent US10618914 (University of Pittsburgh, 2020):

Molecular target: T1, Signal transducer and activator of transcription 1-alpha/beta (Homo sapiens, UniProt P42224)
T1 sequence (P42224 whole entry): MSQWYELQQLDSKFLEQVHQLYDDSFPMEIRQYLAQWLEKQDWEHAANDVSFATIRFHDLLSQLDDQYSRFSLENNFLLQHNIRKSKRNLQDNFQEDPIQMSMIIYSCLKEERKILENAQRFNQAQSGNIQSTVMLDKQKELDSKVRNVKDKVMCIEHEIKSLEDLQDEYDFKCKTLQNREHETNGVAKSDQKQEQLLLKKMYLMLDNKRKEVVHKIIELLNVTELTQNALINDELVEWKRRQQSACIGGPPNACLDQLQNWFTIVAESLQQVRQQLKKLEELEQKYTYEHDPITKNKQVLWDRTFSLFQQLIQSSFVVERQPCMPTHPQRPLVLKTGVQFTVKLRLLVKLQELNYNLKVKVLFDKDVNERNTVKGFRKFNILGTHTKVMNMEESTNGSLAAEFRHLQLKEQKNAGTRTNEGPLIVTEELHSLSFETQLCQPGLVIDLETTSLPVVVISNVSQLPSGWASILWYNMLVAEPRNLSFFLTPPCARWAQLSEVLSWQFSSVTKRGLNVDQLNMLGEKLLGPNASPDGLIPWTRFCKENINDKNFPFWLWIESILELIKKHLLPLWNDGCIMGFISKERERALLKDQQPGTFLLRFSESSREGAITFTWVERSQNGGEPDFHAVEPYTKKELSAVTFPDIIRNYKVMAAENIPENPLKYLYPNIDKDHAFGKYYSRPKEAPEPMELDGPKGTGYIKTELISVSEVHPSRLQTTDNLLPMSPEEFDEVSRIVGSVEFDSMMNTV
Assay: Bioassay Evaluation
Procedure: Compound samples (in 3-5 mg quantities) were evaluated in a variety of assays.

| IC50 [µM] | Structure (SMILES) |
| --- | --- |
| > 50 | CC1(C)Sc2nnc(-c3[nH]nc4c3CCC4)n2N=C1c1ccc(Cl)c(Cl)c1 [US10618914, Compound 32] |
| > 50 | CC1Sc2nnc(-c3[nH]nc4c3CCC4)n2N=C1c1ccc(Cl)c(Cl)c1 (configuration not stated) [US10618914, Compound 19] |
